Source: patent US9790211B2, “5-amino-quinoline-8-carboxamide derivatives as 5-HT4 receptor agonists” (SUVEN LIFE SCIENCES LIMITED, priority 2013, dated 2017)

What was measured:
Aβ1-42 = assay: Effect on CSF Aβ1-42 level (ELISA); assay type: in vivo, Male Sprague Dawley Rat; details: p.o., two hour post treatment
Description: The control group of male rats received a vehicle (reagent grade water) per orally by gavage at a dose volume of 10 mL/kg. The treated groups (6 rat per group) received a single dose of test compound (different doses) or DAPT (50.0 mg/kg). Two hour post dose of vehicle or test compounds, rats were anesthetized with isoflurane and CSF was collected by puncturing Cisterna magna using 0.5 mL syringes by utilizing stereotaxic frame. CSF samples were frozen in liquid nitrogen and stored at −80° C. until ELISA was performed.
• 1. CSF samples were thawed to RT and diluted with Tris Buffer Saline containing protease inhibitors at 1:10 ratio [15:150 μL (15 μL CSF+ 135 μL TBS], • 2. To this diluted CSF samples 0.15 mL of EIA buffer (1:1 ratio) was added. These diluted samples were subjected for Aβ1-42 level measurement by ELISA. Measurement of Aβ1-42 by ELISA Kit:
To investigate the role of an acute treatment of test compound on Aβ1-42 levels, expression of this protein was measured in CSF of treated and untreated rat by ELISA assay. The entire procedure was followed as described in ELISA kit manual (Mouse/Rat […], Cat No: 27720, IBL International, Hamburg, Germany).
Statistical analyses were performed using the Graph Pad Prism (Version 4). Data are Mean±SD of Aβ1-42 levels expressed as percentage of control values (rat which received regent grade water). Values were compared between the different groups by unpaired t test. The significance level was set at *p<0.05; **p<0.01; ***p<0.001.

[1] = tested on: acetylcholine levels in the frontal cortex; assay: Modulation of acetylcholine from the frontal cortex (microdialysis); assay type: in vivo, male Wistar rats; details: p.o.
Excerpt: Male Wistar rats (240-300 gram body weights) were stereotaxically implanted with a microdialysis guide cannula in the frontal cortex (AP: +3.2 mm, ML: −3.2 mm, DV: −1.5 mm). Co-ordinates were taken according to Paxinos and Watson (2007) with reference points taken from bregma and vertical from the skull. The rats were allowed to recover individually for five days in a round bottom Plexiglas bowl with free access to feed and water.
One day prior to the microdialysis experiment, rats were connected to a dual quartz lined two-channel liquid swivel (Instech. UK) on a counter balance lever arm, which allowed unrestricted movements of the animal. […]
On the day of study, probe was perfused at a constant flow rate of 1.5 (μL/min with artificial cerebrospinal fluid (aCSF; NaCl 147 mM. KCl 3.0 mM, MgCl2 1.0 mM, CaCl2. 2H2O 1.3 mM, NaH2PO4.2H2O 0.2 mM and Na2HPO4. 7H2O 1.0 mM, pH 7.2). A stabilization period of 2 h was maintained and five basal samples were collected at 20 minutes intervals. The compound of Example 18 or vehicle was administered and dialysate samples were collected at 20 minutes interval for an additional period of 4 hours. Dialysates were stored below −70° C. until quantitation of acetylcholine.
Acetylcholine in dialysate was quantified in the calibration range of 0.103 nmol-103.497 nmol using LC-MS/MS method. […]

[2] = tested on: Scopolamine Induced amnesia; assay: Radial arm maze; assay type: in vivo; details: p.o., rats
Excerpt: The cognition enhancing properties of compounds of formula (I) of this invention were estimated by using this model.
Radial arm maze consists of a central hub of 45 cm diameter. Each arm was of dimension 42.5×15×24 cm. The maze was elevated to a height of 1 m above the ground. The animals were placed on a restricted diet until they reached approximately 85% of their free feeding weight. During this diet restriction period animals were habituated to the novel feed (pellets). Once the rats reached approximately 85% of their free feeding weight rats were habituated to the maze on the 1st and 2nd day. […] Animals were randomized on day 2. On the subsequent days the treatment was given as per the allotment: Each animal was introduced into the maze individually for a period of 10 minutes. The arms were baited only once and the animal had to learn the rule that repeated arm entries would not be rewarded. The trial ended once the rat had visited 16 arms or 10 minutes were over or all the pellets were eaten. The arm entries were recorded using the software. Once the trial was over the rat was removed and the maze was cleaned using soap water.

Compound | decrease in the rat CSF Aβ1-42 levels (Aβ1-42; 0.03 mg/kg) [%] | decrease in the rat CSF Aβ1-42 levels (Aβ1-42; 0.1 mg/kg) [%] | decrease in the rat CSF Aβ1-42 levels (Aβ1-42; 0.3 mg/kg) [%] | decrease in the rat CSF Aβ1-42 levels (Aβ1-42; 1.0 mg/kg) [%] | decrease in the rat CSF Aβ1-42 levels (Aβ1-42; 3.0 mg/kg) [%] | Area under the curve of acetylcholine change, frontal cortex (in words) ([1]; 10.0 mg/kg, vs vehicle, p<0.05) | acetylcholine levels from the frontal cortex (in words) ([1]; 3.0 and 10.0 mg/kg, male Wistar rats) | Reversal of Scopolamine Induced amnesia - Effective dose range [2]
Nc1c(Cl)cc(C(=O)NCC2CCN(CC3CCOCC3)CC2)c2ncccc12.O=C(O)/C=C/C(=O)O [Example 1, 5-Amino-6-chloro-N-{[1-(tetrahydro-2H-pyran-4-ylmethyl)-4-piperidinyl]methyl}quinoline-8-carboxamide hemifumarate] | 25 | 21 | 35 | 22 | 26 |  |  | 
Nc1c(Cl)cc(C(=O)NCC2CCN(CC3CCOCC3)CC2)c2ncccc12.O=C(O)C(O)C(O)C(=O)O [Example 13, 5-Amino-6-chloro-N-{[1-(tetrahydro-2H-pyran-4-ylmethyl)-4-piperidinyl]methyl} quinoline-8-carboxamide L(+)-tartarate] |  |  |  |  |  | significant | dose dependent increase | 0.1-1 mg/kg, p.o.
